Key:
[1] = in vivo; settings: C57Bl/6, mouse, po, 10 mg/kg
[2] = in vivo; settings: Sprague-Dawley, rat, po, 10 mg/kg
[3] = in vivo; settings: Sprague-Dawley, rat, po, 10 mg/kg; remark: listed apart in the source
[4] = in vivo; settings: C57Bl/6, mouse, po, 10 mg/kg; remark: listed apart in the source
[5] = in vivo; settings: beagle, dog, po, 10 mg/kg
[6] = in vivo; settings: cynomolgus monkey, po, 10 mg/kg
[7] = in vivo; settings: cynomolgus monkey, po, 10 mg/kg; remark: listed apart in the source
[8] = in vivo; settings: beagle, dog, po, 10 mg/kg; remark: listed apart in the source

Row | Structure (SMILES) | half-life [1] [h] | half-life [2] [h] | bioavailability [3] [%] | bioavailability [4] [%] | bioavailability [5] [%] | half-life [6] [h] | bioavailability [7] [%] | half-life [8] [h]
1 | CNc1cc(Nc2cccn(-c3ncccc3F)c2=O)nc2c(C(=O)N[C@@H]3CC[C@H]3OC)cnn12 | 2.1 | 5.9 | 30 |  |  |  |  | 
2 | CNc1cc(Nc2cccn(-c3ncccc3F)c2=O)nc2c(C(=O)N[C@@H]3C[C@@H]3F)cnn12 | 2.2 | 2.7 | 59 | 52 | 51 | 1.4 | 97 | 3
3 | CNc1cc(Nc2cccn(-c3ccccn3)c2=O)nc2c(C(=O)N[C@H]3CC[C@@H]3OC)cnn12 (single isomer, unassigned) | 2 | 1.2 | 37 | 70 | 47 | 3.8 | 47 | 5.3

Source: ChEMBL document CHEMBL5325475, “Discovery of a Potent and Selective Tyrosine Kinase 2 Inhibitor: TAK-279” (J Med Chem, 2023)
